Details: in NMP

CC(C)Oc1ccc2c(=O)c(-c3ccccc3)coc2c1
Details	solubility (mole fraction)
278.15 K	0.0605
283.15 K	0.0683
288.15 K	0.078
293.15 K	0.0892
298.15 K	0.101
303.15 K	0.113
308.15 K	0.129
313.15 K	0.146
318.15 K	0.165
323.15 K	0.186
